From US7910612B2, “4-oxy-N-[1,3,4]-thiadiazol-2-yl-benzene sulfonamides, pharmaceutical compositions and methods for their therapeutic use” (Sanofi-Aventis, priority 2005, dated 2011) come the findings set out here.

Usually EC50 stands for the concentration giving half of the maximal effect. High values mean a need for much substance, low ones an effect from little substance.

The target in this assay is T1, human PPARdelta (Homo sapiens, UniProt Q03181).
T1 construct: amino acids S139-Y441; expressed in transfected cells; host or cells: HEK (human embryo kidney) cells, stably transfected, pcDNA3 vector
T1 sequence (Q03181 139-441): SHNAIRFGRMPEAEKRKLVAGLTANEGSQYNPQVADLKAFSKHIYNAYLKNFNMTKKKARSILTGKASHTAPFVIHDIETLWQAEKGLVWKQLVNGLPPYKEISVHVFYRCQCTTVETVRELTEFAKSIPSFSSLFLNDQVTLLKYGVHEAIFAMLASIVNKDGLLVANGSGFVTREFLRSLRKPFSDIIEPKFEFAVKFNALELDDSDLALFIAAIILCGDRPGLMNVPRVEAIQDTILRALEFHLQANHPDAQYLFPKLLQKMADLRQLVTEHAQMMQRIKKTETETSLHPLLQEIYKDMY
Briefly: cellular PPARdelta assay (stably transfected HEK luciferase reporter cell line). Type of assay: cell-based. The protocol: The potency of substances which bind to human PPARdelta and activate it in an agonistic manner is analyzed using a stably transfected HEK cell line (HEK=human embryo kidney) which is referred to here as PPARdelta reporter cell line. In analogy to the assay described for PPARalpha, the PPARdelta reporter cell line also contains two genetic elements, a luciferase reporter element (pdeltaM-GAL4-Luc-Zeo) and a PPARdelta fusion protein (GR-GAL4-humanPPARdelta-LBD) which mediates expression of the luciferase reporter element depending on a PPARdelta ligand. The stably and constitutively expressed fusion protein GR-GAL4-humanPPARdelta-LBD binds in the cell nucleus of the PPARdelta reporter cell line via the GAL4 protein portion to the GAL4 DNA binding motifs 5′-upstream of the luciferase reporter element which is stably integrated in the genome of the cell line. There is only little expression of the luciferase reporter gene in the absence of a PPARdelta ligand if fatty acid-depleted fetal calf serum (cs-FCS) is used in the assay. PPARdelta ligands bind and activate the PPARdelta fusion protein and thereby stimulate expression of the luciferase reporter gene. The luciferase which is formed can be detected by means of chemiluminescence via an appropriate substrate.
The production of the stable PPARdelta reporter cell line is based on a stable HEK-cell clone which was stably transfected with a luciferase reporter element. This step was already described above in the section “construction of the PPARalpha reporter cell line”. In a second step, the PPARdelta fusion protein (GR-GAL4-humanPPARdelta-LBD was stably introduced into this cell clone. For this purpose, the cDNA coding for the N-terminal 76 amino acids of the glucocorticoid receptor (Accession #P04150) was linked to the cDNA section coding for amino acids 1-147 of the yeast transcription factor GAL4 (Accession #P04386). The cDNA of the ligand-binding domain of the human PPARdelta receptor (amino acids S139-Y441; Accession #L07592) was cloned in at the 3′-end of this GR-GAL4 construct. The fusion construct prepared in this way (GR-GAL4-humanPPARdelta-LBD) was recloned into the plasmid pcDNA3 (Invitrogen) in order to enable constitutive expression by the cytomegalovirus promoter. This plasmid was linearized with a restriction endonuclease and stably transfected into the previously described cell clone containing the luciferase reporter element. The resulting PPARdelta reporter cell line which contains a luciferase reporter element and constitutively expresses the PPARdelta fusion protein (GR-GAL4-human PPARdelta-LBD) was isolated by selection with zeocin (0.5 mg/ml) and G418 (0.5 mg/ml).
The activity of PPARdelta agonists is determined in a 3-day assay in exact analogy to the procedure already described for the PPARalpha reporter cell line except that the PPARdelta reporter cell line and a specific PPARdelta agonist was used as a standard to control test efficacy. […] Compounds of the invention of the formula I activate the PPARdelta receptor.
`Cc1nc(-c2ccc(C(F)(F)F)cc2)sc1COc1ccc(S(=O)(=O)Nc2nnc(C(C)C)s2)cc1` [Example 1, N-(5-Isopropyl-[1,3,4]thiadiazol-2-yl)-4-[4-methyl-2-(4-trifluoromethyl-phenyl)-thiazol-5-ylmethoxy]-benzenesulfonamide] yielded an EC50 of 370 nM.
With `CC(C)c1nnc(NS(=O)(=O)c2ccc(OCc3ccc(Oc4ccc(C(F)(F)F)cc4)cc3)cc2)s1` [Example 4, N-(5-Isopropyl-[1,3,4]thiadiazol-2-yl)-4-[4-(4-trifluoromethyl-phenoxy)-benzyloxy]-benzenesulfonamide], the EC50 was 1130 nM.
Regarding `COc1ccc(-c2nc(COc3ccc(S(=O)(=O)Nc4nnc(C(C)C)s4)cc3)co2)cc1` [Example 13, N-(5-Isopropyl-[1,3,4]thiadiazol-2-yl)-4-[2-(4-methoxy-phenyl)-oxazol-4-ylmethoxy]-benzenesulfonamide], a half-maximal effect (EC50) was put at 650 nM.
Next, `COc1ccc2c(COc3ccc(S(=O)(=O)Nc4nnc(C(C)C)s4)cc3)coc2c1` [Example 3, N-(5-Isopropyl-[1,3,4]thiadiazol-2-yl)-4-(6-methoxy-benzofuran-3-ylmethoxy)-benzenesulfonamide]: 480 nM; `COc1ccc(-c2nc(COc3ccc(S(=O)(=O)Nc4nnc(C(C)C)s4)cc3)no2)cc1` [Example 9, N-(5-Isopropyl-[1,3,4]thiadiazol-2-yl)-4-[5-(4-methoxy-phenyl)-[1,2,4]oxadiazol-3-ylmethoxy]-benzenesulfonamide]: 260 nM.
In turn, `CCc1oc(-c2cccc(C(F)(F)F)c2)nc1COc1ccc(S(=O)(=O)Nc2nnc(C(C)C)s2)cc1` [Example 14, 4-[5-Ethyl-2-(3-trifluoromethyl-phenyl)-oxazol-4-ylmethoxy]-N-(5-isopropyl-[1,3,4]thiadiazol-2-yl)-benzenesulfonamide] showed an EC50 of 670 nM.
